These results are taken from ChEMBL document CHEMBL4706561, “Efficient chemoenzymatic synthesis of fluorinated sialyl Thomsen-Friedenreich antigens and investigation of their characteristics” (Eur J Med Chem, 2020).

The target of the data set is T1, Sialidase (Clostridium perfringens, UniProt P10481).
T1 sequence (P10481 whole entry): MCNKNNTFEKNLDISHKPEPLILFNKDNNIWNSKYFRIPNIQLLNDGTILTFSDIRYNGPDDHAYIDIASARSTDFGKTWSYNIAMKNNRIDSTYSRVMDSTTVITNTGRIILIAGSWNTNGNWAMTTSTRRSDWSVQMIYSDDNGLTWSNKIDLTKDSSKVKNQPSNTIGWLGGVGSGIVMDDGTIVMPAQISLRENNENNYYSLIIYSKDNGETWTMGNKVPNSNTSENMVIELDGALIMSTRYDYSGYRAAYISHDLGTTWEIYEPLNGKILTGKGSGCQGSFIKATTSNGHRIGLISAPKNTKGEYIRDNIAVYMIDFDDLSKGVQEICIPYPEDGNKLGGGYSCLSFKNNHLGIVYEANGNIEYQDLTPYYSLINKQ
The experiment in a line: Stability in D2O assessed as Clostridium perfringens sialidase-mediated hydrolysis by measuring betaKdn formation at 10 mM measured after 12 hrs by 1H NMR spectroscopy. It is filed as ADME. The settings on record: 10000 µM.

`CC(=O)N[C@H]1[C@@H](OCCCN=[N+]=[N-])O[C@H](CO)[C@H](O)[C@@H]1O[C@@H]1O[C@H](CF)[C@H](O)[C@H](O[C@]2(C(=O)O)C[C@H](O)[C@@H](O)[C@H]([C@H](O)[C@H](O)CO)O2)[C@H]1O`: the Drug metabolism result is “Metabolite_Notdetected”.
